From patent US20240277732A1, “COMPOSITIONS AND METHODS FOR TREATING BRAIN-GUT DISORDERS” (Enterin, Inc., priority 2018, published 2024)

Legend:
[1] = tested on: patients with PD and constipation; test: Phase 2 trial Stage 2: bowel function under daily oral dosing (stool diary, PAC-QOL, PAC-SYM); type: in vivo, human; settings: patients with baseline ≥1 CSBM/week
Description: Following successful screening, all subjects underwent a 14-day run-in period where the degree of constipation was assessed through a validated daily log (Zinsmeister et al. 2013) establishing baseline CSBMs/week. Subjects with an average of <3 CSBMs/week proceeded to dosing.
In Stage 2, 34 patients were evaluated.
The primary efficacy outcome variable was whether or not a subject was a “success” or “failure”. This is an endpoint based on subject diary entries for the “fixed dose” period prior to the endpoint assessment defined as average complete stool frequency increase by 1 or more over baseline, or 3 or more complete spontaneous stools/week. The subject was deemed a “success” if s/he met one or more of the criteria listed above, otherwise the subject was deemed a “failure”. The primary analysis was based on all subjects with a baseline assessment and an assessment at the end of the “fixed-dose” period and was a comparison of the proportion of successes with 0.10 (the null hypothesis corresponding to no treatment effect).

[2] = tested on: colonic propagating contractile clusters (PCCs); test: Ex vivo colon motility with intraluminal squalamine, control mouse strains
Description: Ex vivo colon motility: For the ex vivo colonic motility experiments, the colon was excised and placed within an organ-bath perfusion chamber filled with warmed, oxygenated Krebs buffer or physiological saline (35° C., 95% 02, 5% CO2). The colon was flushed and cannulated at the oral and anal ends to a manifold and syringe to allow inflow of oxygenated Krebs buffer (or physiological saline) or Krebs and squalamine and to maintain intraluminal pressure. The height of the inflow tube at baseline measurements was parallel to the height of the colon in the organ bath (1.1 cm). Mechanical threshold defined an inflow pressure great enough to generate a contraction in under 30 sec (1.8 cm). Recordings in the first portion of the study were measured at a mechanical threshold causing a pressure differential of 2 hPa (cm H2O). Inflow was raised 2-3 hPa above baseline and outflow was raised a minimum of 0.2 hPa above inflow. Motor patterns were recorded using a Microsoft LifeCam 3000 web camera or a Logitech Quickcam Pro camera positioned 7-8 cm above the tissue. Videos were recorded during a 20-minute Krebs control and a 20-minute Krebs+squalamine period in which solutions were added to the inflow syringe.
Spatiotemporal Maps: Video recordings were used to construct spatiotemporal maps (STmaps) using edge detection software. Parameters of motor patterns including, velocity, amplitude, and frequency were measured using ImageJ and Matlab (Version 12) software.
Statistical Analysis: Effects of squalamine on motility and IPAN excitability in WT and PD model mice were assessed in paired experiments following Krebs control and subsequent squalamine exposure. Unpaired comparisons were performed for experiments comparing PD control and PD model strains. Percent difference was calculated by (treatment-control)/control. Data are presented as mean±SEM. Ex vivo statistical comparisons were performed using paired or unpaired, two-tailed t-tests or 1-way ANOVA using Graphpad Prism software (Version 7.0). In vivo studies were analysed using 1-way and 2-way ANOVA. Statistical significance was determined when p<0.05.

A53T and WT mice = test: In vivo fecal pellet output; parameters: species or system mouse
Description: In vivo fecal pellet output: Mice were subjected to the FPO test 1 day prior to the start of dosing with squalamine or vehicle (sterile water) (day 0). Mice were fasted for one hour and then given access to food one hour before FPO testing. On days 1-5 mice were fasted for one hour prior to oral gavage with vehicle or 20, 40, 80, or 120 mg/kg squalamine. Oral gavage occurred between 10:00 to 11:00 am daily. On day 5, the FPO test was performed 1 hour after the final dose was administered. Total number of stool pellets produced in the first 15 min and over a 60 min period was measured in each group. Stool water content was measured by comparing wet and dry weights of the stool.
In Vivo Fecal Pellet Output: Feeding of squalamine increased fecal pellet output, without substantially increasing water content, in vivo. To extend the ex vivo studies to the animal, both A53T and WT mice (N=10 mice/group/dose) were administered squalamine orally by gavage for 5 days (Day 1 to Day 5), at a range of doses from 0, 20, 40, 80 and 120 mg/kg. Fecal pellet output (FPO) within the first 15 minutes was measured following the gavage of vehicle control (on Day 0) or squalamine (on Day 5, at doses of 0, 20, 40, 80, and 120 mg/kg). There was no significant difference in the FPO in the first 15 min in WT and A53T mice between Days 0 and 5, in the groups receiving only vehicle (P>0.05). […] An increase in colonic motility should decrease the time of the stool within the colon and thereby increase the moisture content of the fecal pellets. […] Thus, squalamine appears to increase colonic transit in vivo.

[3] = tested on: myenteric intrinsic primary afferent neurons (IPANs); test: Whole-cell patch clamp of IPANs, divided hemi-dissection preparation of FVB PD mouse; type: cell-based
Description: Whole-cell Patch Clamp: Whole-cell patch clamp was performed on a hemi-dissected myenteric plexus preparation as previously described.
IPAN excitability: PD model mice have reduced IPAN excitability. To determine the mechanism by which squalamine stimulated intestinal motility, electrophysiological studies on single neurons within the intact myenteric plexus of PD mice and corresponding control animals were conducted using published methods. In this series of studies a mouse α-synuclein knock-out model that expressed four copies of human A53T α-synuclein driven by the endogenous α-synuclein promoter (FVB PD), with the control (FVB control) represented by a strain engineered to express two copies of the normal human α-synuclein protein, was used.
IPANs from FVB PD animals were less excitable than IPANs recorded from FVB controls. The sample AP threshold (mean SD (N)) was 46% smaller for FVB control (32.2±20.0 (16)) compared to FVB PD (59.2±46.1 (20)). The number of action potentials produced by a current 2× the threshold intensity was 145% larger, 3.9±5.1 (16) for FVB control versus 1.6±0.6 (19) for FVB PD. The area under of the curve for the sAHP was 42% smaller −49.5±63.7 (16) versus −85.5±78.2 (19). RMP was depolarized by 10% for the FVB control, −56±10 (16) versus −62±6 (20).
Myenteric Primary Afferent Neuron Excitation: Squalamine excites myenteric primary afferent neurons. The effect of squalamine on the excitability of an isolated intestinal segment from the FVB PD mouse was explored using divided hemi-dissection preparations so that neurons are exposed for only half the area of an opened small intestinal segment. In this experiment, the inquiry was whether squalamine influenced the activity of the IPAN through direct interaction or indirectly, by stimulating release of epithelial mediators that influenced IPAN behaviour. Addition of squalamine (30 μM) to Krebs buffer in either the epithelial or the myenteric plexus compartments of the divided hemi-dissection preparation increased IPAN excitability. […] Addition of squalamine decreased the area under the curve of the sAHP by 77% from 86.8±88.2 to 20.3±25.3 mV·s, and depolarised RMP by 12% from −62±7 to −54±6 mV.

[4] = Intranasal pharmacokinetics in CSF; type: in vivo, Sprague Dawley rats; settings: 0.5 mg/kg IN, SD rats
From the text: (§1) The purpose of this example was to evaluate the in vivo distribution and function of aminosterols, such as Aminosterol 1436 and squalamine, following intranasal administration. This experiment relates to the amount of drug needed to obtain a therapeutic result, based on an IN route of administration. The results described below detail that aminosterols such as Aminosterol 1436 act at the level of the hypothalamus following in vivo administration, regardless of the route of administration.

[5] = Intranasal pharmacokinetics in plasma; type: in vivo, Sprague Dawley rats; settings: plasma, 0.5 mg/kg IN dose, SD rats
From the text: as §1

PD population = settings: short term placebo controlled trial; cited from earlier work
[6] = tested on: individuals with mild constipation; settings: cited from earlier work

CC(C)[C@@H](CC[C@@H](C)[C@H]1CC[C@H]2[C@@H]3[C@H](O)C[C@H]4C[C@@H](NCCCNCCCCN)CC[C@]4(C)[C@H]3CC[C@]12C)OS(=O)(=O)O [squalamine]
mean prokinetic dose [1]: 120 mg | increase of PCC velocity ([2]; C57BL/6 (P<0.05)): 38% | increase of PCC amplitude ([2]; C57BL/6 (P=0.27)): 1% | increase of PCC frequency ([2]; C57BL/6 (P=0.27)): 51% | PCC frequency ([2]; C57BL/6, control 0.007±0.001): 0.010±0.003 Hz | PCC amplitude ([2]; C57BL/6, control 0.66±0.06): 0.70±0.07 cm | PCC velocity ([2]; C57BL/6, control 1.31±0.10): 1.80±0.20 mm/s | increase of PCC velocity ([2]; CD-1 (P<0.01)): 81% | increase of PCC frequency ([2]; CD-1 (P=0.06)): 63% | increase of PCC amplitude ([2]; CD-1 (P=0.56)): 12% | increase of PCC velocity ([2]; Swiss Webster (P<0.0001)): 45% | increase of PCC frequency ([2]; Swiss Webster (P<0.01)): 35% | decrease of PCC amplitude ([2]; Swiss Webster (P=0.65)): 3% | stool water content (A53T and WT mice; A53T mice, 80 and 120 mg/kg (P=0.023 and 0.0004)): significantly increased water content | FPO in the first 15 min, Day 5 versus Day 0 (A53T and WT mice; A53T mice, oral gavage 5 days, 20, 40 and 80 mg/kg (P<0.005, P<0.0001, P<0.01)): significantly increased FPO | fecal pellet output (A53T and WT mice; PD and wild type mice, 40 mg/kg/d for 5 days): increased their fecal pellet output | stool water content (A53T and WT mice; WT mice, 80 mg/kg (P=0.025)): significantly increased water content | FPO in the first 15 min, Day 5 versus Day 0 (A53T and WT mice; WT mice, oral gavage 5 days, 40 and 120 mg/kg (P<0.01 and P<0.05)): significantly increased FPO | decrease of AP threshold ([3]; added to the epithelium): 44% | decrease of sAHP AUC ([3]; added to the epithelium): 77% | increase of number of APs at 2× threshold current ([3]; added to the epithelium): 87% | number of APs at 2× threshold current ([3]; added to the epithelium, before 1.6±0.6): 3.1±0.7 | decrease of AP threshold ([3]; added to the myenteric plexus): 37% | decrease of sAHP AUC ([3]; added to the myenteric plexus): 87% | number of APs at 2× threshold current ([3]; added to the myenteric plexus, before 1.4±0.5): 4.4±2.8 | area under the curve of the sAHP ([3]; added to the myenteric plexus, before −71.9±60.1): −9.6±15.1 mV·s

CC(C)[C@@H](CC[C@@H](C)[C@H]1CC[C@H]2[C@@H]3[C@H](O)C[C@H]4C[C@@H](NCCCNCCCCN)CC[C@]4(C)[C@H]3CC[C@]12C)OS(=O)(=O)O.C[C@H](O)C(=O)O.O [squalamine lactate]
presence in CSF [4]: No squalamine lactate or Aminosterol 1436 was found in CSF | AUCInf [5]: 7863 ng·h/mL | AUC_% Extrap_obs [5]: 32.7% | AUClast [5]: 5296 ng·h/mL | AUClast/D [5]: 10600 kg·ng·h/mL/mg | Cmax [5]: 1001 ng/mL | MRTInf_obs [5]: 7.12 h | T1/2 [5]: 4.55 h | Tmax [5]: 1.00 h

CCCCC(F)(F)[C@@]1(O)CC[C@H]2[C@@H](CC(=O)[C@@H]2CCCCCCC(=O)O)O1 [Lubiprostone]
share of treated in whom effective (PD population): about 50%

polyethylene glycol [polyethylene glycol (Magrogol)]
stool frequency and consistency [6]: shown to provide benefit
